Test results: ChEMBL document CHEMBL1773000, “Synthesis and biological activity of 22-deoxo-23-oxa analogues of saponin OSW-1” (J Med Chem, 2011)
pIC50: −log10 of the molar value.

Legend:
HOS = test: Cytotoxicity against human HOS cells assessed as viable cells after 72 hrs by calcein AM assay; format: functional, cell-based
CCRF-CEM = test: Cytotoxicity against human CEM cells assessed as viable cells after 72 hrs by calcein AM assay; format: functional, cell-based
HCT-116 = test: Cytotoxicity against human HCT116 assessed as viable cells after 72 hrs by calcein AM assay; format: functional, cell-based; conditions: HCT-116, 72 h
A549 = test: Cytotoxicity against human A549 cells assessed as viable cells after 72 hrs by calcein AM assay; format: functional, cell-based; conditions: A549, 72 h
HeLa = test: Cytotoxicity against human HeLa cells assessed as viable cells after 72 hrs by calcein AM assay; format: functional, cell-based
[1] = Cytotoxicity against human T98 cells assessed as viable cells after 72 hrs by calcein AM assay; format: functional, cell-based; conditions: T98, 72 h
BJ = test: Cytotoxicity against human BJ cells assessed as viable cells after 72 hrs by calcein AM assay; format: cell-based
MCF7 = test: Cytotoxicity against human MCF7 cells assessed as viable cells after 72 hrs by calcein AM assay; format: functional, cell-based; conditions: MCF7, 72 h
G-361 = test: Cytotoxicity against human G361 cells assessed as viable cells after 72 hrs by calcein AM assay; format: functional, cell-based; conditions: G-361, 72 h

SMILES | pIC50 (HOS) | pIC50 (CCRF-CEM) | pIC50 (HCT-116) | pIC50 (A549) | pIC50 (HeLa) | pIC50 [1] | pIC50 (BJ) | pIC50 (MCF7) | pIC50 (G-361)
CCCCCCCCCCCC(=O)OC[C@@H](C)[C@@]1(O)[C@@H](O[C@@H]2OC[C@H](O)[C@H](O[C@@H]3OC[C@@H](O)[C@H](O)[C@H]3OC(=O)c3ccc(OC)cc3)[C@H]2OC(C)=O)C[C@H]2[C@@H]3CC=C4C[C@@H](O)CC[C@]4(C)[C@H]3CC[C@@]21C | 5.72 | 8.20 | 5.55 | 6.03 | 7.38 | 8.15 | 8.30 | 7.68 | 8.10
CC(C)CCC(=O)[C@@H](C)[C@@]1(O)[C@@H](O)C[C@H]2[C@@H]3CC=C4C[C@@H](O)CC[C@]4(C)[C@H]3CC[C@@]21C | < 4.30 | < 4.30 | < 4.30 | < 4.30 | < 4.30 | < 4.30 | < 4.30 | < 4.30 | < 4.30
CCCCCCCCCCCCCCCCCC(=O)OC[C@@H](C)[C@@]1(O)[C@@H](O[C@@H]2OC[C@H](O)[C@H](O[C@@H]3OC[C@@H](O)[C@H](O)[C@H]3OC(=O)c3ccc(OC)cc3)[C@H]2OC(C)=O)C[C@H]2[C@@H]3CC=C4C[C@@H](O)CC[C@]4(C)[C@H]3CC[C@@]21C | < 4.30 | 7.24 | < 4.30 | 6.26 | 6.36 | 6.68 | 7.10 | 6.71 | 6.52
COc1ccc(C(=O)O[C@H]2[C@H](O[C@@H]3[C@@H](OC(C)=O)[C@H](O[C@H]4C[C@H]5[C@@H]6CC=C7C[C@@H](O)CC[C@]7(C)[C@H]6CC[C@]5(C)[C@@]4(O)[C@H](C)COC(=O)c4ccccc4)OC[C@@H]3O)OC[C@@H](O)[C@@H]2O)cc1 |  | 7.15 |  | 6.77 |  |  | 7.00 | 6.15 | 5.78
CCCCCCCCC(=O)OC[C@@H](C)[C@@]1(O)[C@@H](O[C@@H]2OC[C@H](O)[C@H](O[C@@H]3OC[C@@H](O)[C@H](O)[C@H]3OC(=O)c3ccc(OC)cc3)[C@H]2OC(C)=O)C[C@H]2[C@@H]3CC=C4C[C@@H](O)CC[C@]4(C)[C@H]3CC[C@@]21C | 5.55 | 8.14 | 5.31 | 6.23 | 7.33 | 7.96 | 8.15 | 7.59 | 7.82
CCCCCCCCCCCCCC(=O)OC[C@@H](C)[C@@]1(O)[C@@H](O[C@@H]2OC[C@H](O)[C@H](O[C@@H]3OC[C@@H](O)[C@H](O)[C@H]3OC(=O)c3ccc(OC)cc3)[C@H]2OC(C)=O)C[C@H]2[C@@H]3CC=C4C[C@@H](O)CC[C@]4(C)[C@H]3CC[C@@]21C | 5.57 | 7.80 | 5.55 | 6.14 | 7.17 | 7.55 | 7.08 | 7.32 | 7.52
CCCCCCC(=O)OC[C@@H](C)[C@@]1(O)[C@@H](O[C@@H]2OC[C@H](O)[C@H](O[C@@H]3OC[C@@H](O)[C@H](O)[C@H]3OC(=O)c3ccc(OC)cc3)[C@H]2OC(C)=O)C[C@H]2[C@@H]3CC=C4C[C@@H](O)CC[C@]4(C)[C@H]3CC[C@@]21C |  | 8.00 |  | 7.70 | 7.52 |  | 6.22 | 6.40 | 5.89
CCCCC(=O)OC[C@@H](C)[C@@]1(O)[C@@H](O[C@@H]2OC[C@H](O)[C@H](O[C@@H]3OC[C@@H](O)[C@H](O)[C@H]3OC(=O)c3ccc(OC)cc3)[C@H]2OC(C)=O)C[C@H]2[C@@H]3CC=C4C[C@@H](O)CC[C@]4(C)[C@H]3CC[C@@]21C |  | 7.22 |  | 6.80 | 6.77 |  | 6.30 | 6.30 | 6.41
C=CCCCCC(=O)OC[C@@H](C)[C@@]1(O)[C@@H](O[C@@H]2OC[C@H](O)[C@H](O[C@@H]3OC[C@@H](O)[C@H](O)[C@H]3OC(=O)c3ccc(OC)cc3)[C@H]2OC(C)=O)C[C@H]2[C@@H]3CC=C4C[C@@H](O)CC[C@]4(C)[C@H]3CC[C@@]21C | 5.19 | 7.68 | 4.96 | 6.08 | 7.21 | 7.37 | 7.70 | 7.27 | 7.36
COc1ccc(C(=O)O[C@H]2[C@H](O[C@@H]3[C@@H](OC(C)=O)[C@H](O[C@H]4C[C@H]5[C@@H]6CC=C7C[C@@H](O)CC[C@]7(C)[C@H]6CC[C@]5(C)[C@@]4(O)[C@H](C)C(=O)CCC(C)C)OC[C@@H]3O)OC[C@@H](O)[C@@H]2O)cc1 | 5.09 | 9.52 | 5.08 | 7.57 | 8.47 | 7.15 | 9.70 | 8.62 | 6.00
COc1ccc(C(=O)O[C@H]2[C@H](O[C@@H]3[C@@H](OC(C)=O)[C@H](O[C@H]4C[C@H]5[C@@H]6CC=C7C[C@@H](O)CC[C@]7(C)[C@H]6CC[C@]5(C)[C@@]4(O)[C@H](C)COCc4ccccc4)OC[C@@H]3O)OC[C@@H](O)[C@@H]2O)cc1 |  | 7.70 |  | 7.00 | 6.70 |  | 6.52 | 6.22 | 6.12
